Assay results taken from US20120214736A1, “COMPOSITIONS AND METHODS FOR THE MODULATION OF JNK PROTEINS” (Isis Pharmaceuticals, Inc., priority 2006, published 2012).
In the oligonucleotide strings, read from the 5' end, every base follows the letter of its sugar. An asterisk marks phosphorothioate; unmarked linkages are phosphodiester. Other units and linkages are bracketed, terminal groups are in braces. A string of capitals states the bases alone. e = 2'-O-(2-methoxyethyl) (MOE); [5mC] = 5-methylcytosine; d = 2'-deoxy (DNA)

What was measured:
JNK2 mRNA = experiment: Northern assay, JNK2 mRNA expression in A549 cells; format: cell-based, human; conditions: for response of JNK2 mRNA levels in A549 cells (dose and sequence dependence): 50, 100, 200 and 400 nM
Procedure: (§1) In order to evaluate the activity of potential JNK-modulating oligonucleotides, human lung carcinoma cell line A549 (American Type Culture Collection, Rockville, Md. No. ATCC CCL-185) cells or other cell lines as indicated in the Examples, were grown and treated with oligonucleotides or control solutions as detailed below. After harvesting, cellular extracts were prepared and examined for specific JNK mRNA levels or JNK protein levels (i.e., Northern or Western assays, respectively). In all cases, “% expression” refers to the amount of JNK-specific signal in an oligonucleotide-treated cell relative to an untreated cell (or a cell treated with a control solution that lacks oligonucleotide).
(§2) Northern Assays The mRNA expression of each JNK protein was determined by using a nucleic acid probe specifically hybridizable thereto. Nucleic acid probes specific for JNK1, JNK2 and JNK3 are described in Examples 3, 4 and 5, respectively. The probes were radiolabelled by means well known in the art (see, e.g., Short Protocols in Molecular Biology, 2nd Ed., Ausubel et al., Eds., John Wiley & Sons, New York, 1992, pages 3-11 to 2-3-44 and 4-17 to 4-18; Ruth, Chapter 6 In: Methods in Molecular Biology, Vol. 26: Protocols for Oligonucleotide Conjugates, Agrawal, ed., Humana Press Inc., Totowa, N.J., 1994, pages 167-185; and Chapter 10 In: Molecular Cloning: A Laboratory Manual, 2nd Ed., Sambrook et al., Eds., pages 10.1-10.70). The blots were stripped and reprobed with a ^32P-labeled glyceraldehyde 3-phosphate dehydrogenase (G3PDH) probe (Clontech Laboratories, Inc., Palo Alto, Calif.) in order to confirm equal loading of RNA and to allow the levels of JNK transcripts to be normalized with regard to the G3PDH signals.
A549 cells were grown in T-75 flasks until 80-90% confluent. At this time, the cells were washed twice with 10 mL of media (DMEM), followed by the addition of 5 mL of DMEM containing 20 ┘g/mL of LIPOFECTIN™ (i.e., 1:1 (w/w) DOTMA/DOPE, Life Technologies, Gaithersburg, Md.; DOTMA=N-[1-(2,3-dioleyoxy)propyl]-N,N,N-trimethylammonium chloride; DOPE=dioleoyl phosphatidylethanolamine). The oligonucleotides were added from a 10 μM stock solution to a final concentration of 400 nM, and the two solutions were mixed by swirling the flasks. As a control, cells were treated with LIPOFECTIN™ without oligonucleotide under the same conditions and for the same times as the oligonucleotide-treated samples. After 4 hours at 37° C., the medium was replaced with fresh DMEM containing 10% serum. The cells were allowed to recover for 18 hours. Total cellular RNA was then extracted in guanidinium, subject to gel electrophoresis and transferred to a filter according to techniques known in the art (see, e.g., Chapter 7 In: Molecular Cloning: A Laboratory Manual, 2nd Ed., Sambrook et al., Eds., pages 7.1-7.87, and Short Protocols in Molecular Biology, 2nd Ed., Ausubel et al., Eds., John Wiley & Sons, New York, 1992, pages 2-24 to 2-30 and 4-14 to 4-29). Filters were typically hybridized overnight to a probe specific for the particular JNK gene of interest in hybridization buffer (25 mM KPO4, pH 7.4; 5×SSC; 5×Denhardt's solution, 100 µg/ml Salmon sperm DNA and 50% formamide) (Alahari et al., Nucl. Acids Res., 1993, 21, 4079). […] Hybridizing bands were visualized by exposure to X-OMAT AR film and quantitated using a PHOSPHORIMAGER™ essentially according to the manufacturer's instructions (Molecular Dynamics, Sunnyvale, Calif.). […]

JNK1 mRNA = experiment: Northern assay, JNK1 mRNA expression in A549 cells; format: cell-based, human; conditions: for response of JNK1 mRNA levels in A549 cells (dose and sequence dependence): 50, 100, 200 and 400 nM; for RNA % Inhibition: 300 nM for initial 20 hours then 200 nM for 4 hours
Procedure: as §1, §2
A549 cells were grown in T-75 flasks until 80-90% confluent. At this time, the cells were washed twice with 10 mL of media (DMEM), followed by the addition of 5 mL of DMEM containing 20 ┘g/mL of LIPOFECTIN™ (i.e., 1:1 (w/w) DOTMA/DOPE, Life Technologies, Gaithersburg, Md.; DOTMA=N-[1-(2,3-dioleyoxy)propyl]-N,N,N-trimethylammonium chloride; DOPE=dioleoyl phosphatidylethanolamine). The oligonucleotides were added from a 10 μM stock solution to a final concentration of 400 nM, and the two solutions were mixed by swirling the flasks. As a control, cells were treated with LIPOFECTIN™ without oligonucleotide under the same conditions and for the same times as the oligonucleotide-treated samples. After 4 hours at 37° C., the medium was replaced with fresh DMEM containing 10% serum. The cells were allowed to recover for 18 hours. Total cellular RNA was then extracted in guanidinium, subject to gel electrophoresis and transferred to a filter according to techniques known in the art (see, e.g., Chapter 7 In: Molecular Cloning: A Laboratory Manual, 2nd Ed., Sambrook et al., Eds., pages 7.1-7.87, and Short Protocols in Molecular Biology, 2nd Ed., Ausubel et al., Eds., John Wiley & Sons, New York, 1992, pages 2-24 to 2-30 and 4-14 to 4-29). Filters were typically hybridized overnight to a probe specific for the particular JNK gene of interest in hybridization buffer (25 mM KPO4, pH 7.4; 5×SSC; 5×Denhardt's solution, 100 µg/ml Salmon sperm DNA and 50% formamide) (Alahari et al., Nucl. Acids Res., 1993, 21, 4079). This was followed by two washes with 1×SSC, 0.1% SDS and two washes with 0.25×SSC, 0.1% SDS. Hybridizing bands were visualized by exposure to X-OMAT AR film and quantitated using a PHOSPHORIMAGER™ essentially according to the manufacturer's instructions (Molecular Dynamics, Sunnyvale, Calif.).
JNK1-specific probes: In initial screenings of a set of oligonucleotides derived from the JNK1 sequence (Table 2) for biological activity, a cDNA clone of JNK1 (Derijard et al., Cell, 1994, 76, 1025) was radiolabeled and used as a JNK1-specific probe in Northern blots. Alternatively, however, one or more of the oligonucleotides of Table 1 is detectably labeled and used as a JNK1-specific probe. […]

[1] = system: TNFa-induced JNK activity; experiment: TNFa-induced JNK activity in HUVEC (GST-c-Jun phosphorylation); format: cell-based, human; conditions: 100 nM, 5 ng/ml TNFa 15 minutes, compared to a control oligonucleotide
Procedure: Human umbilical vein endothelial cells (HUVEC, Clonetics, San Diego Calif.) were incubated with oligonucleotide with LipofectinJ in Opti-MEMJ for 4 hours at 37° C./5% CO2. The medium was then replaced with 1% FBS/EGM (Clonetics, Walkersville Md.) and incubated for 24 hours at 37° C./5% CO2. Cells were treated with 5 ng/ml TNFa for 15 minutes before lysis. JNK activity was determined by incubating lysates (normalized for protein) with immobilized GST-c-Jun fusion protein (e.g., New England Biolabs, Beverly, Mass.)+^32P-ATP. GST-c-Jun beads were washed and SDS-PAGE sample buffer was added. Samples were resolved by SDS-PAGE and phosphorylated c-Jun was visualized using a Molecular Dynamics PhosphorImager.

rat JNK2 mRNA = experiment: Northern assay, rat JNK2 (p54a) mRNA levels in A10 aortic smooth muscle cells; format: cell-based; conditions: Northern assays
Procedure: (§3) In order to study the role of JNK proteins in animal models, oligonucleotides targeted to the genes encoding JNK1, JNK2 and JNK3 of Rattus norvegicus were prepared. These oligonucleotides are 2′-methoxyethoxy, phosphodiester/2′-hydroxyl, phosphorothioate/2′-methoxyethoxy, phosphodiester “gapmers” in which every cytosine residue is 5-methylcytosine (m5c). These antisense compounds were synthesized according to the methods of the disclosure. Certain of these oligonucleotides are additionally specifically hybridizable to JNK genes from other species as indicated herein. The oligonucleotides described in this Example were tested for their ability to modulate rat JNK mRNA levels essentially according to the methods described in the preceding Examples, with the exceptions that the cell line used was rat A10 aortic smooth muscle cells (ATCC No. ATCC CRL-1476) and the probes used were specific for rat JNK1, JNK2 or JNK3 (see infra). A10 cells were grown and treated with oligonucleotides essentially as described by (Cioffi et al. Mol. Pharmacol., 1997, 51, 383).
(§4) These antisense compounds were tested for their ability to modulate levels of (JNK1) and (JNK2) mRNA in A10 cells via Northern assays. Due to the high degree of sequence identity between the human and rat genes, radiolabeled human JNK1 (Example 3) and JNK2 (Example 4) cDNAs functioned as specific probes for the rat homologs. […]

rat JNK1 mRNA = experiment: Northern assay, rat JNK1 mRNA levels in A10 aortic smooth muscle cells; format: cell-based; conditions: Northern assays
Procedure: as §3, §4

human JNK2 mRNA = experiment: Northern analysis, human JNK2 mRNA in Jurkat cells (electroporation, dose response); format: cell-based; conditions: Jurkat cells
Procedure: Jurkat cells were routinely cultured in RPMI Medium 1640 (Gibco/Life Technologies, Gaithersburg, Md.) supplemented with 20% fetal calf serum (Gibco/Life Technologies, Gaithersburg, Md.). Cells were routinely passaged by aspirating media that contained excess cells and replenishing with new media.
For electroporation, cells were diluted to 28×10^6 cells/mL and placed into 1 mm electroporation cuvettes. Electroporation is performed by treating with 1-20 μM oligonucleotide, at 160 Volts for 6 msec. The entire electroporated samples are then placed into 5 mL of 10% FBS/RPMI Medium 1640 in 100 mm plates. Plates are then left overnight at 37° C./5% CO2.
Each sample is then transferred to 15 mL conical tubes and spun down at 1200 rpm for 5 minutes followed by aspiration of the supernatant. Cells are then suspended in 5 mL PBS followed by a second centrifugation at 1200 rpm for 5 minutes followed by aspiration of the supernatant. Cells are then washed and lysed. Following the lysis step, total cellular RNA is then isolated using the RNEASY kit (Qiagen, Santa Clarita, Calif.) as described in other examples herein.
In accordance with the present invention, Jurkat cells were treated by electroporation with 1, 5 or 20 uM ISIS 101759 or the control oligonucleotide and mRNA levels of human JNK2 were quantitated by Northern analysis.

12539 (antisense CTCTCTGTAGGCCCGCTTGG; DNA, all phosphorothioate, methylation of C not given here) [compound 12539]
response of JNK2 mRNA levels in A549 cells (dose and sequence dependence) (JNK2 mRNA): dependent on dose in an approximately linear fashion | response of JNK1 mRNA levels in A549 cells (dose and sequence dependence) (JNK1 mRNA): dependent on dose in an approximately linear fashion | RNA % Inhibition (JNK1 mRNA; t = 48 h): 93.3% | RNA % Inhibition (JNK1 mRNA; t = 72 h): 88.3%

12560 (antisense dG*dT*dC*dC*dG*dG*dG*dC*dC*dA*dG*dG*dC*dC*dA*dA*dA*dG*dT*dC) [compound 12560]
level of inhibition of JNK2 (JNK2 mRNA; for at least about 12 hours following the 4 hour treatment): greater than or equal to 80% | level of inhibition of JNK2 (JNK2 mRNA; up to at least about t=48 h): greater than or equal to 60%

14318 (sense dG*dA*dC*dT*dT*dT*dG*dG*dC*dC*dT*dG*dG*dC*dC*dC*dG*dG*dA*dC) [compound 14318]
response of JNK2 mRNA levels in A549 cells (dose and sequence dependence) (JNK2 mRNA): neither of the control oligonucleotides effect any consistent response

14319 (dG*dT*dG*dC*dG*dC*dG*dC*dG*dA*dG*dC*dC*dC*dG*dA*dA*dA*dT*dC) [compound 14319]
response of JNK2 mRNA levels in A549 cells (dose and sequence dependence) (JNK2 mRNA): neither of the control oligonucleotides effect any consistent response

14320 (sense CCAAGCGGGCCTACAGAGAG; DNA, all phosphorothioate, methylation of C not given here) [compound 14320]
response of JNK1 mRNA levels in A549 cells (dose and sequence dependence) (JNK1 mRNA): neither of the control oligonucleotides effect any consistent response

14321 (CTTTCCGTTGGACCCCTGGG; DNA, all phosphorothioate, methylation of C not given here) [compound 14321]
response of JNK1 mRNA levels in A549 cells (dose and sequence dependence) (JNK1 mRNA): neither of the control oligonucleotides effect any consistent response

15346 (antisense CTCTCTGTAGGCCCGCTTGG; gapmer: P=S, 2'-MOE wings, 2'-deoxy core, chemistry not fully specified) [compound 15346]
RNA % Inhibition (JNK1 mRNA; t = 48 h): 95.7% | RNA % Inhibition (JNK1 mRNA; t = 72 h): 89.4%

15353 (antisense GTCCGGGCCAGGCCAAAGTC; P=S gapmer, 2'-MOE wings, chemistry not fully specified) [compound 15353]
inhibition of TNFa-induced JNK activity [1]: approximately 55%

18259 (antisense eGe[5mC]eTe[5mC]eA*dG*dT*dG*dG*dA*d[5mC]*dA*dT*dG*dG*eAeTeGeAeG) [compound 18259]
specific modulation of mRNA encoding JNK2 (dose response) (rat JNK2 mRNA): specifically modulates levels of mRNA encoding JNK1 and JNK2, respectively

21859 (antisense e[5mC]eTe[5mC]eAeT*dG*dA*dT*dG*dG*d[5mC]*dA*dA*dG*d[5mC]*eAeAeTeTeA) [compound 21859]
specific modulation of mRNA encoding JNK1 (dose response) (rat JNK1 mRNA): specifically modulates levels of mRNA encoding JNK1 and JNK2, respectively

101759 (antisense GCTCAGTGGACATGGATGAG; sugars from the 5' end e5 d10 e5, all phosphorothioate, methylation of C not given here) [compound 101759]
Percent Inhibition of human JNK2 mRNA (human JNK2 mRNA; 1 uM): 14% | Percent Inhibition of human JNK2 mRNA (human JNK2 mRNA; 5 uM): 56% | Percent Inhibition of human JNK2 mRNA (human JNK2 mRNA; 20 uM): 92%
